Measurements taken from patent publication US11077090B2, “Compounds and compositions and uses thereof” (Sunovion Pharmaceuticals Inc., priority 2016, dated 2021).

What follows are compounds tested on compound-treated mice (assay: Neuropharmacological assay (SmartCube): behavioral activity signature and minimal effective dose). Conditions: MED = dose having 50% or more total activity.
Assay type: in vivo
Outline: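 Mice dosed i.p. 15 min before test, compound in N-methyl-2-pyrrolidone/PEG/propylene glycol, 3 doses; video-captured behavior matched to reference-drug signatures, giving per-class probabilities at most efficacious dose. MED from doses typically 0.3–30 mpk, defined as lowest dose with ≥50% total activity.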

Compound	Potency: minimal effective dose (MED)
Cl.NC1COCCc2ccc3ccccc3c21 (centres unmarked) [Example 32]	C (>10 to ≤30 mpk)
Cc1ccc2c(c1)C(N)COCC2.Cl (centres unmarked) [Example 34]	B (>3 to 10 mpk)
Cl.NC1COCCc2ccc3ccccc3c21 (centres unmarked) [Example 35]	B (>3 to 10 mpk)

Same assay, conditions: MED = dose having 50% or more total activity, hydrochloride

Compound	Potency: minimal effective dose (MED)
Cc1ccc2c(c1)C(N)COCC2.Cl (centres unmarked) [Example 31, 8-Methyl-1,2,4,5-tetrahydrobenzo[d]oxepin-1-amine hydrochloride]	C (>10 to ≤30 mpk)

Same assay, conditions: Mus musculus, ip, MED = dose having 50% or more total activity, read-out: Potency: minimal effective dose (MED)

Compound	minimal effective dose
Cc1cccc2c1C(N)COC2.Cl (centres unmarked) [Example 21, 5-Methylisochroman-4-amine hydrochloride]	3 to 10 mg/kg
Cl.NC1COCc2cccc(F)c21 (centres unmarked) [Example 22]	10 to 30 mg/kg
Cl.NC1COCc2c(F)cccc21 (centres unmarked) [Example 23]	10 to 30 mg/kg
COc1cccc2c1COCC2N.Cl (centres unmarked) [Example 24]	10 to 30 mg/kg
COc1cccc2c1C(N)COC2.Cl (centres unmarked) [Example 25]	10 to 30 mg/kg
Cc1ccc2c(c1)C(N)COC2.Cl (centres unmarked) [Example 26]	< 3 mg/kg
Cc1cccc2c1COCC2N.Cl (centres unmarked) [Example 27]	3 to 10 mg/kg
Cl.NC1COCc2cccc(Cl)c21 (centres unmarked) [Example 28]	3 to 10 mg/kg
CC1(C)OCC(N)c2ccccc21.Cl (centres unmarked) [Example 29]	10 to 30 mg/kg
Cl.NC1COCCc2ccccc21 (centres unmarked) [Example 30]	> 30 mg/kg
Cl.NC1CCOCc2ccccc21 (centres unmarked) [Example 33, 1,3,4,5-Tetrahydrobenzo[c]oxepin-5-amine hydrochloride]	10 to 30 mg/kg

Same assay, conditions: i.p. 15 min before test, most efficacious dose(s)

Compound	AD: ADHD (probability of activity signature)	AG: analgesic (probability of activity signature)	AX: anxiolytic (probability of activity signature)	CE: cognitive enhancer (probability of activity signature)	DP: anti-depressant (probability of activity signature)	MS: mood stabilizer (probability of activity signature)	PS: anti-psychotic (probability of activity signature)	SD: sedative hypnotic (probability of activity signature)	UN: uncharacterized CNS activity (probability of activity signature)
Cc1cccc2c1C(N)COC2.Cl (centres unmarked) [Example 21, 5-Methylisochroman-4-amine hydrochloride]	+ (LOQ ≤ + <5%)	++ (5% ≤ ++ <25%)	++ (5% ≤ ++ <25%)	++ (5% ≤ ++ <25%)	++ (5% ≤ ++ <25%)	+ (LOQ ≤ + <5%)	++ (5% ≤ ++ <25%)	++ (5% ≤ ++ <25%)	+++ (25% ≤ +++ <50%)
Cl.NC1COCc2cccc(F)c21 (centres unmarked) [Example 22]	+ (LOQ ≤ + <5%)	++ (5% ≤ ++ <25%)	++ (5% ≤ ++ <25%)	++ (5% ≤ ++ <25%)	++ (5% ≤ ++ <25%)	+ (LOQ ≤ + <5%)	++ (5% ≤ ++ <25%)	+ (LOQ ≤ + <5%)	+++ (25% ≤ +++ <50%)
Cl.NC1COCc2c(F)cccc21 (centres unmarked) [Example 23]	+ (LOQ ≤ + <5%)	++ (5% ≤ ++ <25%)	+++ (25% ≤ +++ <50%)	++ (5% ≤ ++ <25%)	++ (5% ≤ ++ <25%)	+ (LOQ ≤ + <5%)	++ (5% ≤ ++ <25%)	+ (LOQ ≤ + <5%)	++ (5% ≤ ++ <25%)
COc1cccc2c1COCC2N.Cl (centres unmarked) [Example 24]	+ (LOQ ≤ + <5%)	+ (LOQ ≤ + <5%)	++ (5% ≤ ++ <25%)	+ (LOQ ≤ + <5%)	++ (5% ≤ ++ <25%)	+ (LOQ ≤ + <5%)	++ (5% ≤ ++ <25%)	++ (5% ≤ ++ <25%)	+ (LOQ ≤ + <5%)
COc1cccc2c1C(N)COC2.Cl (centres unmarked) [Example 25]	+ (LOQ ≤ + <5%)	++ (5% ≤ ++ <25%)	++ (5% ≤ ++ <25%)	++ (5% ≤ ++ <25%)	++ (5% ≤ ++ <25%)	+ (LOQ ≤ + <5%)	++ (5% ≤ ++ <25%)	+ (LOQ ≤ + <5%)	+++ (25% ≤ +++ <50%)
Cc1ccc2c(c1)C(N)COC2.Cl (centres unmarked) [Example 26]	+ (LOQ ≤ + <5%)	++ (5% ≤ ++ <25%)	++ (5% ≤ ++ <25%)	++ (5% ≤ ++ <25%)	++ (5% ≤ ++ <25%)	+ (LOQ ≤ + <5%)	++ (5% ≤ ++ <25%)	+ (LOQ ≤ + <5%)	++++ (50% ≤ ++++)
Cc1cccc2c1COCC2N.Cl (centres unmarked) [Example 27]	+ (LOQ ≤ + <5%)	++ (5% ≤ ++ <25%)	++ (5% ≤ ++ <25%)	++ (5% ≤ ++ <25%)	++ (5% ≤ ++ <25%)	++ (5% ≤ ++ <25%)	++ (5% ≤ ++ <25%)	+ (LOQ ≤ + <5%)	+++ (25% ≤ +++ <50%)
Cl.NC1COCc2cccc(Cl)c21 (centres unmarked) [Example 28]	+ (LOQ ≤ + <5%)	++ (5% ≤ ++ <25%)	++ (5% ≤ ++ <25%)	++ (5% ≤ ++ <25%)	++ (5% ≤ ++ <25%)	+ (LOQ ≤ + <5%)	++ (5% ≤ ++ <25%)	+ (LOQ ≤ + <5%)	+++ (25% ≤ +++ <50%)
CC1(C)OCC(N)c2ccccc21.Cl (centres unmarked) [Example 29]	+ (LOQ ≤ + <5%)	+++ (25% ≤ +++ <50%)	++ (5% ≤ ++ <25%)	+ (LOQ ≤ + <5%)	++ (5% ≤ ++ <25%)	+ (LOQ ≤ + <5%)	+ (LOQ ≤ + <5%)	+ (LOQ ≤ + <5%)	+ (LOQ ≤ + <5%)
Cl.NC1COCCc2ccccc21 (centres unmarked) [Example 30]	+ (LOQ ≤ + <5%)	++ (5% ≤ ++ <25%)	+ (LOQ ≤ + <5%)	+ (LOQ ≤ + <5%)	+ (LOQ ≤ + <5%)	+ (LOQ ≤ + <5%)	+ (LOQ ≤ + <5%)	+ (LOQ ≤ + <5%)	+ (LOQ ≤ + <5%)
Cc1ccc2c(c1)C(N)COCC2.Cl (centres unmarked) [Example 31, 8-Methyl-1,2,4,5-tetrahydrobenzo[d]oxepin-1-amine hydrochloride]	+ (LOQ ≤ + <5%)	++ (5% ≤ ++ <25%)	–	–	–	+ (LOQ ≤ + <5%)	–	–	+++ (25% ≤ +++ <50%)
Cl.NC1COCCc2ccc3ccccc3c21 (centres unmarked) [Example 32]	+ (LOQ ≤ + <5%)	++ (5% ≤ ++ <25%)	++ (5% ≤ ++ <25%)	+ (LOQ ≤ + <5%)	++ (5% ≤ ++ <25%)	+ (LOQ ≤ + <5%)	++ (5% ≤ ++ <25%)	++ (5% ≤ ++ <25%)	+ (LOQ ≤ + <5%)
Cl.NC1CCOCc2ccccc21 (centres unmarked) [Example 33, 1,3,4,5-Tetrahydrobenzo[c]oxepin-5-amine hydrochloride]	+ (LOQ ≤ + <5%)	++ (5% ≤ ++ <25%)	++ (5% ≤ ++ <25%)	++ (5% ≤ ++ <25%)	+ (LOQ ≤ + <5%)	+ (LOQ ≤ + <5%)	++ (5% ≤ ++ <25%)	+ (LOQ ≤ + <5%)	+++ (25% ≤ +++ <50%)
Cc1ccc2c(c1)C(N)COCC2.Cl (centres unmarked) [Example 34]	–	–	+++ (25% ≤ +++ <50%)	++ (5% ≤ ++ <25%)	+ (LOQ ≤ + <5%)	–	++ (5% ≤ ++ <25%)	++ (5% ≤ ++ <25%)	–
Cl.NC1COCCc2ccc3ccccc3c21 (centres unmarked) [Example 35]	+ (LOQ ≤ + <5%)	++ (5% ≤ ++ <25%)	+++ (25% ≤ +++ <50%)	++ (5% ≤ ++ <25%)	++ (5% ≤ ++ <25%)	+ (LOQ ≤ + <5%)	++ (5% ≤ ++ <25%)	+ (LOQ ≤ + <5%)	+++ (25% ≤ +++ <50%)

Same assay, conditions: i.p. 15 min before test, most efficacious dose(s), hydrochloride

Compound	AX: anxiolytic (probability of activity signature)	CE: cognitive enhancer (probability of activity signature)	DP: anti-depressant (probability of activity signature)	PS: anti-psychotic (probability of activity signature)	SD: sedative hypnotic (probability of activity signature)
Cc1ccc2c(c1)C(N)COCC2.Cl (centres unmarked) [Example 31, 8-Methyl-1,2,4,5-tetrahydrobenzo[d]oxepin-1-amine hydrochloride]	++ (5% ≤ ++ <25%)	+ (LOQ ≤ + <5%)	++ (5% ≤ ++ <25%)	+ (LOQ ≤ + <5%)	+ (LOQ ≤ + <5%)
